Source: article PMC10747112, “Triphenylphosphine Derivatives of Allylbenzenes Express Antitumor and Adjuvant Activity When Solubilized with Cyclodextrin-Based Formulations” (Pharmaceuticals, 2023)
Values after ≈ are worked out from the molar mass of the structure shown. Read-outs that look alike come from different tables or passages of the source. Marks after values point to notes of the source that are not given here.

Tests used:
[1] = Solubility by UV spectroscopy (PBS, with and without M-β-CD); type: physicochemical; details: PBS
Procedure: On the contrary, their complexes with M-β-CD are soluble, and a clear peak in the UV spectrum is pronounced (225 nm). Based on UV spectra data in the presence of M-β-CD, the increase in solubility of apiol-PPh3 and analogues by a second order of magnitude is observed (Table 2).
The solubility of apiol and apiol-PPh3 (or analogues) in aqueous solution was determined by UV spectroscopy. UV spectra were recorded on the UltraSpec 2100 pro device (AmerSham Biosciences, Cambridge, UK) three times. The substances were dissolved in acetonitrile followed by recording the UV spectra at various cytostatics’ concentrations, and then we plotted calibration dependencies. Next, saturated solutions of substances in water were prepared, and the spectra of the aqueous solutions were recorded. Considering the extinction coefficients in water and acetonitrile to be approximately equal, the solubility was determined.

A549 cells [2] = test: MTT assay, cytotoxic activity against A549; type: cell-based; details: Homo sapiens
Procedure: Concentrations of the active substance varied from 10^−2 to 10^−4 M. For MTT assay and biological experiments, substances in the concentration range from 10^−3 to 10^−9 M were studied by the dilution of initial ones in a cell growth medium or buffer.
Adenocarcinomic human alveolar basal epithelial cells A549 cell lines (Manassas, VA, USA) were cultured in RPMI-1640 medium, linear cells of the embryonic kidney human epithelium (HEK293T) were grown in DMEM medium as described earlier. Cell lines were obtained from Lomonosov Moscow State University Depository of Live Systems Collection and Laboratory of Medical Biotechnology, Institute of Biomedical Chemistry (Moscow, Russia).
(§1) The cytotoxic activity of paclitaxel, Apiol-PPh3 and analogues was determined using an MTT test. Paclitaxel-adjuvant synergism coefficients (SC) were calculated as CV (paclitaxel) × CV (alone adjuvant)/CV (combo paclitaxel + adjuvant), where CV represents the cell viability. The synergy coefficient can be interpreted as strong synergy (SC > 2), synergy (2 > SC > 1.2), indifference/additivity (1.2 > SC > 0.8), antagonism (0.8 > SC > 0.5), and inhibition (SC < 0.5), as described earlier.

A549 cells [3] = test: MTT assay, synergy of adjuvants with paclitaxel against A549; type: cell-based, human; details: X − M-β-CD, SC = CV(paclitaxel) × CV(adjuvant)/CV(combo)
Excerpt: Apparently PPh3 derivatives effectively penetrate into cancer cells along a potential gradient, inhibit efflux proteins and mitochondrial enzymes, causing the apoptosis of cancer cells, with IC50 values being lower by two orders of magnitude than the corresponding allylbenzene (Table 3). […] For allylbenzenes, a synergy close to additivity (the cytostatic effect of adjuvant + paclitaxel is almost equal to the sum of their individual contributions) was observed; for PPh3 derivatives, a pronounced increase in the action of paclitaxel is characteristic (the cytostatic effect of adjuvant + paclitaxel is much higher (>) than the sum of their individual contributions). For apiol-PPh3, the most pronounced effect of increasing the activity of paclitaxel was observed (Figure 4b).
Figure 4 Viability of A549 cells in the presence of paclitaxel and allylbenzenes’ PPh3 derivatives in the form of complexes with M-β-CD (1:5 mol/mol). MTT assay. (a) Dose–effect graphs. (b) MTT assay results for 100 nM paclitaxel alone and combined with allylbenzenes’ PPh3 derivatives in the form of complexes with M-β-CD (1:5 mol/mol).
as §1

[4] = parameters: unit not given here; details: unmodified allylbenzenes; cited from earlier work
cytochrome P450 3A4 = details: read-out: IC50 cytochrome P450 3A4; cited from earlier work
cancer cells = test system: cancer cells; parameters: method as in PMID 35128247; details: dillapiol 25–50 µM; cited from earlier work
erythrocytes = test: Hemolytic activity; type: cell-based; details: X in M-β-CD; 0.1 mg/mL; released hemoglobin relative to 0.05% Triton X-100 control
Excerpt: (§2) Hemolytic activity and thrombogenicity are the primary parameters for evaluating the safety of medical formulations. The phenotypic sea urchin embryo assay developed by colleagues is a visual way to study the toxicity of formulations in vivo. The sea urchin and human genomes contain more than 7000 common genes, including orthologs associated with a number of human diseases. Therefore, sea urchins can be considered as a reliable and versatile model organism for studying the safety of new and existing cytotoxic formulations in vivo. Table 5 presents data on the % of erythrocyte hemolysis, the degree of whole blood thrombosis of apiol-PPh3 and analogues, and data of phenotypic sea urchin embryo assay. Thus, the non-toxicity of PPh3 derivatives of allylbenzenes for normal non-cancer cells, as well as the selectivity of action against cancer cells, is shown. The selectivity of cytotoxic action against cancer cells in comparison with normal cells can be explained by the fact that the PPh3- cation provides selective accumulation and reduction in the mitochondrial membrane potential of the transformed cancer cells. Cyclodextrin (M-β-CD) and heparin are non-toxic (and approved by the FDA for intravenous application).
(§3) The hemolytic activity and thrombogenicity of apiol-PPh3 and analogues were studied using an earlier published technique.

whole blood = test: Thrombogenicity (whole blood thrombosis); details: X in M-β-CD; 0.1 mg/mL; relative to control with microscopic glass particles
Excerpt: as §2, §3

sea urchin embryos = test: Phenotypic sea urchin embryo assay; type: in vivo; details: X in M-β-CD
Excerpt: as §2
Adult sea urchins, Paracentrotus lividus L. (Echinidae), were collected from the Mediterranean Sea on the Cyprus coast and kept in an aerated seawater tank and were used to study the cleavage alteration of Apiol-PPh3 and analogues. Experiments with sea urchin embryos comply with the requirements of biological ethics.

HEK293T cells = test: FTIR spectroscopy of HEK293T cells during incubation with drug (penetration/adsorption); type: cell-based, human; details: 60 min incubation (apiol-PPh3 in M-β-CD) or pre-incubation (doxorubicin controls); 37 °C
Excerpt: The main cell structural units that contribute to the absorption of IR diapason can be assigned as follows (Figure 5): lipids of the cell membrane (2800–3000 cm^−1), proteins, especially transmembrane (1500–1700 cm^−1), phosphate groups of DNA (1240 cm^−1) and carbohydrates, including lipopolysaccharides (900–1100 cm^−1). Previously, we developed a technique for tracking the penetration and adsorption of the drug into cells using FTIR spectroscopy: dramatic changes in the intensity of the peaks of amide 1 and amide 2 indicate effective penetration of the drug into cells and vice versa.
Here, we present the real-time data of FTIR spectroscopy during the incubation of a suspension of HEK293T cells with apiol-PPh3 in M-β-CD (Figure 5). […] There is only a shift of the peak of amide 1 to the low-frequency region (inserts in Figure 5, the normalized intensity is shown) and amide 2 to the high-frequency region with the simultaneous appearance of the shoulder. This indicates the only adsorption of drug molecules on the cell surface, which is also confirmed by a weak increase in the intensity of the peaks at 2850–3000 cm^−1 corresponding to the valence vibrations of the CH2 groups (lipid bilayer). Thus, PPh3 derivatives show only marginal activity against normal cells.

[5] = A549, read-out: −lg (IC50) of X in M-β-CD against A549
[6] = A549, X in M-β-CD 1:5 mol/mol, MTT, read-out: −lg (IC50) of X in M-β-CD against A549 (converted)

Structure (SMILES) | Solubility in PBS [1] [µM] | IC50 (A549 cells [2]; [5]) [µM] | Synergy Coefficients of Adjuvants and PPh3–Adjuvants with Paclitaxel (A549 cells [3]) | −lg Kd (X − M-β-CD) [4] | IC50 (A549 cells [2]; [6]) [µM] | further results
C=CCc1cc(OC)c(OC)c(OC)c1OC [Allyltetramethoxybenzene, allyltetramethoxybenzene, reference compound] | 160 ± 20 (≈ 38.1 µg/mL) | 316 | 1.4 ± 0.2 | 3.4 ± 0.3 |  | 
C=CCc1cc(OC)c2c(c1OC)OCO2 [Apiol, 1-allyl-2,5-dimethoxy-3,4-methylenedioxybenzene] | 130 ± 10 (≈ 28.9 µg/mL) | 251 | 1.3 ± 0.2 | 2.6 ± 0.3 |  | IC50 (cytochrome P450 3A4): 7.9 µM
C=CCc1cc2c(c(OC)c1OC)OCO2 [Dillapiol, dillapiol] |  |  | 1.1 ± 0.1 | 2.7 ± 0.5 | 631 | effect on cell cycle / apoptosis of cancer cells (cancer cells): induced G0/G1 cell cycle arrest
C=CCc1cc(OC)c2c(c1)OCO2 [Myristicin, myristicin, reference compound] |  |  | 0.9 ± 0.2 | 3.5 ± 0.2 | 1260 | solubility ([1]; aqueous buffer, thermodynamic from solid, read-out: Solubility in PBS): 30 ± 7 µM (≈ 5.77 µg/mL)
CC(=O)O[C@H]1C(=O)[C@@]2(C)[C@H]([C@H](OC(=O)c3ccccc3)[C@]3(O)C[C@H](OC(=O)[C@H](O)[C@@H](NC(=O)c4ccccc4)c4ccccc4)C(C)=C1C3(C)C)[C@]1(OC(C)=O)CO[C@@H]1C[C@@H]2O [Paclitaxel, paclitaxel, reference compound] |  |  |  |  | 0.631 | Hemolysis Index (erythrocytes): <0.5 (p = 0.012) %; Thrombosis Index (whole blood): 0.6 ± 0.1%; Concentration Causing Changes in Sea Urchin Embryos (sea urchin embryos): >4 *** μM
COc1cccc2c1C(=O)c1c(O)c3c(c(O)c1C2=O)C[C@@](O)(C(=O)CO)C[C@@H]3O[C@H]1C[C@H](N)[C@H](O)[C@H](C)O1 [doxorubicin, reference compound] |  |  |  |  |  | changes in FTIR amide I and II peak intensity of HEK293T cells (drug penetration) (HEK293T cells): Dramatic changes in the intensity of the amide 1 and amide 2 peaks
